Some test systems named below: A549; ACHN; CAKI-1; HCT-116; HOP-62; Hs-578T; IGROV-1; Malme-3M; NCI-H460; NCI-H522; OVCAR-5; PC-3; RPMI-8226; SK-MEL-5; SK-OV-3; SNB-19; SNB-75; SW-620; TK-10; CCRF-CEM.
What all share (experiment): DTP human tumour cell line panel, 48 h

The structures appear in SMILES notation. Where “and” joins values, the source holds several entries; their conditions need not be identical. Equal values may be shown once.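 Results reflect a 48-hour exposure of cells in 96-well plates to compound at five concentrations. Here, GI50 denotes the concentration required for 50% inhibition of growth.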 Calls of active or inactive are those of the source. Rule as the data show it: active = GI50 up to about 1.1 µM and inactive = higher. Residues, ends and D or L forms follow the SMILES beside them. *: point of attachment. Boc = CC(C)(C)OC(=O)*; OBn = c1ccc(CO*)cc1

A word on the GI50: it is the concentration at which growth is held to half of that of the control. For the compound `N#CC(NCCO)=C1C(=O)c2ccccc2C1=O`, the GI50 with A549, in the experiment on ACHN, with CAKI-1, in the experiment on HCT-116, with HOP-62 and in the experiment on Hs-578T was > 100 µM (inactive) in each case. Also, the GI50 in the experiment on IGROV-1, in the experiment with Malme-3M, in the experiment on NCI-H460, in the experiment on NCI-H522, with OVCAR-5 and in the experiment on PC-3 was > 100 µM (inactive) each time. Also, the GI50 in the experiment with RPMI-8226, in the experiment on SK-MEL-5, in the experiment on SK-OV-3, in the experiment with SNB-19, in the experiment on SNB-75 and in the experiment with SW-620 was > 100 µM (inactive) in each case. The GI50 in the experiment with TK-10 is > 100 µM (inactive).

Take `COC(=O)Cc1c([C@H]2[C@H](CC(=O)OC)c3ccccc3N2S(=O)(=O)c2ccc(C)cc2)[nH]c2ccccc12`: the GI50 with A549 is > 100 µM (inactive); in the experiment with ACHN, > 100 µM (inactive); with CAKI-1 it was > 100 µM (inactive); in the experiment with CCRF-CEM, 18.5 µM (inactive); with HCT-116 it was > 100 µM (inactive); in the experiment on HOP-62 it was > 100 µM (inactive). The GI50 is > 100 µM (inactive) with Hs-578T; 3.13 µM (inactive) in the experiment on IGROV-1; 0.208 µM (active) with Malme-3M; > 100 µM (inactive) with NCI-H460; > 28.4 µM (inactive) with NCI-H522; > 100 µM (inactive) in the experiment with OVCAR-5. Also, the GI50 in the experiment on PC-3 was > 100 µM (inactive); in the experiment on RPMI-8226, 7 µM (inactive); in the experiment with SK-MEL-5, > 100 µM (inactive); in the experiment with SK-OV-3, > 100 µM (inactive); in the experiment with SNB-19 it was > 100 µM (inactive); in the experiment with SW-620, > 100 µM (inactive). The GI50 in the experiment on TK-10 is > 100 µM (inactive).

As to `O=C(CC(O)(C(F)(F)F)C(F)(F)F)c1cccs1`, the GI50 in the experiment on A549, with ACHN, in the experiment with CAKI-1, in the experiment with CCRF-CEM, in the experiment with HCT-116 and in the experiment on HOP-62 was > 10 µM (inactive) throughout. Besides, the GI50 with Hs-578T, in the experiment with IGROV-1, in the experiment on Malme-3M, in the experiment on NCI-H522, in the experiment on PC-3 and in the experiment with RPMI-8226 was > 10 µM (inactive) each time. Besides, the GI50 in the experiment on SK-MEL-5, in the experiment on SK-OV-3, with SNB-19, in the experiment on SNB-75, in the experiment on SW-620 and in the experiment on TK-10 was > 10 µM (inactive) each time.

As to `O=c1[nH]c2nc3ccccc3c(=O)n2/c1=C/c1ccc(Cl)cc1`, the GI50 in the experiment on A549 is > 100 µM (inactive); in the experiment with ACHN, 65.3 µM (inactive); in the experiment with CAKI-1, > 100 µM (inactive); in the experiment with CCRF-CEM, 37 µM (inactive); with HCT-116, 36 µM (inactive); in the experiment with HOP-62 it was 53.7 µM (inactive). The GI50 in the experiment with Hs-578T was 20.8 µM (inactive); with Malme-3M, 28.9 µM (inactive); in the experiment on NCI-H522, 12.6 µM (inactive); in the experiment with OVCAR-5 it was 63.5 µM (inactive); with PC-3 it was > 100 µM (inactive); in the experiment on RPMI-8226, 82.8 µM (inactive). Besides, the GI50 with SK-OV-3 was > 100 µM (inactive); in the experiment on SNB-19 it was 23.4 µM (inactive); with SW-620 it was 17.9 µM (inactive); with TK-10 it was 58.5 µM (inactive).

Take `CNC1C(O)C(NC)C2OC3(O)C(=O)CC(C)OC3OC2C1O` (stereo not drawn): the GI50 in the experiment with A549, in the experiment with ACHN, in the experiment on CAKI-1, with CCRF-CEM, with HCT-116 and with HOP-62 was > 100 µM (inactive) in each case. In addition, the GI50 in the experiment on Hs-578T, with IGROV-1, with NCI-H460, with NCI-H522, in the experiment on OVCAR-5 and in the experiment on PC-3 was > 100 µM (inactive) each time. The GI50 in the experiment with RPMI-8226, in the experiment on SK-MEL-5, with SK-OV-3, in the experiment on SNB-19, with SNB-75 and in the experiment on SW-620 was > 100 µM (inactive) in each case. Further, the GI50 with TK-10 was > 100 µM (inactive).

On to `CC(=O)CC(O)(C(F)(F)Cl)C(F)(F)Cl`, for which the GI50 in the experiment on A549, in the experiment on ACHN, with CAKI-1, in the experiment on CCRF-CEM, in the experiment on HCT-116 and in the experiment on HOP-62 was > 10 µM (inactive) each time. In addition, the GI50 with Hs-578T, with IGROV-1, in the experiment with Malme-3M, in the experiment on NCI-H460, with NCI-H522 and in the experiment on PC-3 was > 10 µM (inactive) throughout. The GI50 in the experiment with RPMI-8226, in the experiment on SK-MEL-5, with SK-OV-3, with SNB-19, with SNB-75 and in the experiment on SW-620 was > 10 µM (inactive) each time. Also, in the experiment on TK-10, the GI50 is > 10 µM (inactive).

For `O=C1NC2(CCCCC2)N=C2C(Cl)CCCC12Cl` (stereo not drawn), the GI50 is 0.0535 µM (active) with A549; > 100 µM (inactive) in the experiment with ACHN; > 100 µM (inactive) in the experiment with CCRF-CEM; > 100 µM (inactive) with HOP-62; > 100 µM (inactive) with Hs-578T; > 100 µM (inactive) in the experiment on IGROV-1. The GI50 in the experiment on Malme-3M, with NCI-H460, in the experiment with NCI-H522, in the experiment on OVCAR-5, in the experiment on PC-3 and in the experiment with RPMI-8226 was > 100 µM (inactive) each time. Besides, the GI50 in the experiment with SK-MEL-5, in the experiment on SK-OV-3, with SNB-19, with SNB-75, with SW-620 and in the experiment on TK-10 was > 100 µM (inactive) each time.

Take `CC1(C)N=C(N)N=C(N)N1c1ccc(OCC(=O)Nc2cccc(S(=O)(=O)F)c2)c(Cl)c1`: the GI50 with A549 was 3.52 µM (inactive); in the experiment with ACHN it was 30 µM (inactive); in the experiment with CAKI-1, 35.8 µM (inactive); with CCRF-CEM, 5.37 µM (inactive); in the experiment on HCT-116, 12.6 µM (inactive); in the experiment on HOP-62 it was 31 µM (inactive). Further, the GI50 in the experiment on Hs-578T was 12.2 µM (inactive); in the experiment on IGROV-1 it was 7 µM (inactive); with NCI-H460, 5.48 µM (inactive); in the experiment on NCI-H522 it was 51.8 µM (inactive); in the experiment with OVCAR-5, 7.91 µM (inactive); in the experiment on PC-3, 1.54 µM (inactive). The GI50 in the experiment with RPMI-8226 is > 33.3 µM (inactive); in the experiment on SK-MEL-5, 3.56 µM (inactive); in the experiment with SK-OV-3 it was > 81.1 µM (inactive); in the experiment on SNB-19, 7.8 µM (inactive); with SNB-75, 54.7 µM (inactive); in the experiment with SW-620, 3.71 µM (inactive). Moreover, the GI50 with TK-10 is 7.24 µM (inactive).

Regarding `Brc1ccc(/N=N/N2CCCC2)cc1`, the GI50 is 74.1 µM (inactive) with A549; 71.6 µM (inactive) in the experiment on ACHN; 27.7 µM (inactive) in the experiment with CAKI-1; 42 µM (inactive) with CCRF-CEM; 58.6 µM (inactive) with HCT-116; > 100 µM (inactive) in the experiment on HOP-62. In addition, the GI50 with Hs-578T was > 100 µM (inactive); in the experiment with IGROV-1, 34.8 µM (inactive); with Malme-3M, > 100 µM (inactive); in the experiment with NCI-H460, 48.2 µM (inactive); with NCI-H522, 27.4 µM (inactive); with OVCAR-5, > 100 µM (inactive). Also, the GI50 in the experiment with PC-3 is 31.8 µM (inactive); in the experiment on RPMI-8226, 51.1 µM (inactive); in the experiment on SK-MEL-5 it was 27.1 µM (inactive); in the experiment on SK-OV-3, > 100 µM (inactive); with SNB-19, > 100 µM (inactive); in the experiment with SW-620, > 100 µM (inactive). Further, the GI50 with TK-10 is 82.4 µM (inactive).

`CC(C)C(NC(=O)CNC(=O)C1CCCN1C(=O)C(NC(=O)OC(C)(C)C)C(C)C)C(=O)NCC(=O)OCc1ccccc1` (stereo not drawn) (Boc-VPGVG-OBn; configuration not given here): the GI50 in the experiment with A549, in the experiment with ACHN, with CAKI-1, with CCRF-CEM, with HCT-116 and in the experiment on HOP-62 was > 100 µM (inactive) each time. Further, the GI50 is 80.7 µM (inactive) in the experiment with Hs-578T; > 100 µM (inactive) and 94.6 µM (inactive) in the experiment with IGROV-1; > 100 µM (inactive) with Malme-3M; > 100 µM (inactive) with NCI-H460; > 100 µM (inactive) in the experiment on NCI-H522; > 100 µM (inactive) with OVCAR-5. Further, the GI50 in the experiment on PC-3 is > 100 µM (inactive); in the experiment with RPMI-8226 it was > 100 µM (inactive); with SK-MEL-5, 24.5 µM (inactive); in the experiment on SK-OV-3, > 100 µM (inactive); in the experiment with SNB-19 it was > 100 µM (inactive); in the experiment on SW-620 it was > 100 µM (inactive).

As to `O=c1ccc2ccc(O)cc2o1` [UMBELLIFERONE], the GI50 with A549, with ACHN, in the experiment on CAKI-1, with CCRF-CEM, in the experiment on HCT-116 and with HOP-62 was > 100 µM (inactive) each time. For the same compound, the GI50 in the experiment on Hs-578T, with IGROV-1, in the experiment on Malme-3M, with NCI-H522, with OVCAR-5 and in the experiment on PC-3 was > 100 µM (inactive) throughout. Also, the GI50 with RPMI-8226, with SK-MEL-5, in the experiment with SK-OV-3, with SNB-19, in the experiment on SNB-75 and in the experiment on SW-620 was > 100 µM (inactive) in each case. Further, the GI50 with TK-10 is > 100 µM (inactive).

The values are drawn from ChEMBL document CHEMBL1201862, “PubChem BioAssay data set” (2004).
